Where two headings read alike, the source gives them in different places.

For orientation: mortality means the share of the test organisms that died.

A short description of data set [1]: Log P by HPLC on reversed phase columns, acidic range (EEC directive 79/831 Annex V.A8). Type of data set: physicochemical. As for the experimental part:
Measurement of Log P values was performed according to EEC directive 79/831 Annex V.A8 by HPLC (High Performance Liquid Chromatography) on reversed phase columns with the following methods: • [^a] Log P value is determined by measurement of LC-UV, in an acidic range, with 0.1% formic acid in water and acetonitrile as eluent (linear gradient from 10% acetonitrile to 95% acetonitrile). • [^b] Log P value is determined by measurement of LC-UV, in a neutral range, with 0.001 molar ammonium acetate solution in water and acetonitrile as eluent (linear gradient from 10% acetonitrile to 95% acetonitrile).
Calibration was done with straight-chain alkan-2-ones (with 3 to 16 carbon atoms) with known Log P values (measurement of Log P values using retention times with linear interpolation between successive alkanones). Lambda-max-values were determined using UV-spectra from 200 nm to 400 nm and the peak values of the chromatographic signals.

For data set [2], the system named is Cooperia curticei. Briefly: microbe, parasite or virus in culture. The following applies: 120 h, read-out: activity (larval mortality). The format is cell-based. As for the experimental part: (§1) To produce a suitable preparation of active compound, 10 mg of active compound are dissolved in 0.5 ml dimethyl sulfoxide, and the concentrate is diluted with “Ringer's solution” to the desired concentration.
Approximately 40 nematode larvae (Cooperia curticei) are transferred into a test tube containing the compound solution. After 5 days percentage of larval mortality is recorded. 100% efficacy means all larvae are killed; 0% efficacy means no larvae are killed.

Data set [3] concerns Haemonchus contortus. In words: microbe, parasite or virus in culture. The following applies: 120 h, read-out: activity (larval mortality). The format is cell-based. The protocol:
as §1
Approximately 40 larvae of the red stomach worm (Haemonchus contortus) are transferred into a test tube containing compound solution. After 5 days percentage of larval mortality are recorded. 100% efficacy means all larvae are killed, 0% efficacy means no larvae are killed.

Where [4] appears, read: reversed phase HPLC columns; LC-UV, acidic range, 0.1% formic acid in water and acetonitrile; read-out: logP a) (HCOOH).
Where [5] appears, read: 4 ppm, after 5 days, Cooperia curticei larvae.
Where [6] appears, read: 20 ppm, after 5 days, Cooperia curticei larvae.
[7] abbreviates: 20 ppm, after 5 days, Haemonchus contortus larvae.

With `O=C(NCC(F)(F)c1ncc(-c2ccoc2)cc1Cl)c1ccccc1C(F)(F)F` [Example 1], in data set [1] (LC-UV, acidic range, 0.1% formic acid in water and acetonitrile; read-out: logP a) (HCOOH)), the chromatographic logP turned out to be 3.21. Besides, in data set [2] (Cooperia curticei), the mortality at 4 ppm is at least 90% and the mortality at 20 ppm worked out at 100%.

Turning to `Cc1occc1-c1cnc(C(F)(F)CNC(=O)c2ccccc2C(F)(F)F)c(Cl)c1` [Example 2], the chromatographic logP in data set [1] (setting [4]) came to 3.53. Besides, in data set [2] (setting [5]), the mortality at 4 ppm was at least 90%. Besides, the mortality at 20 ppm in data set [2] (setting [6]) was determined as 100%; in data set [3] (setting [7]), 90%.

As for `O=C(NCC(F)(F)c1ncc(-n2cc(C(F)(F)F)cn2)cc1Cl)c1ccccc1C(F)(F)F` [Example 3, N-[2-[3-chloro-5-[4-(trifluoromethyl)pyrazol-1-yl]-2-pyridyl]-2,2-difluoro-ethyl]-2-(trifluoromethyl)benzamide], the chromatographic logP in data set [1] came to 3.62. For the same compound, in data set [2] (Cooperia curticei), the mortality at 4 ppm is at least 90% and the mortality at 20 ppm turned out to be 100%. The mortality at 20 ppm in data set [3] (Haemonchus contortus) stood at 100%.

For `Cn1ccc(-c2cnc(C(F)(F)CNC(=O)c3ccccc3C(F)(F)F)c(Cl)c2)c1` [Example 4], the chromatographic logP in data set [1] (setting [4]) worked out at 3.22. Also, in data set [2] (setting [5]), the mortality at 4 ppm is at least 90%.

Turning to `O=C(NCC(F)(F)c1ncc(-n2cc(F)cn2)cc1Cl)c1ccccc1C(F)(F)F` [Example 5], in data set [1] (setting [4]), the chromatographic logP stood at 3.12. In addition, the mortality at 4 ppm in data set [2] (setting [5]) is at least 90%. In addition, the values for the mortality at 20 ppm in data set [2] (setting [6]) and in data set [3] (setting [7]) were 100% and 90%, respectively.

As for `Cn1c(C(F)(F)F)nn(-c2cnc(C(F)(F)CNC(=O)c3ccccc3C(F)(F)F)c(Cl)c2)c1=O` [Example 6], in data set [1], the chromatographic logP was determined as 3.32. Moreover, in data set [2] (Cooperia curticei), the mortality at 4 ppm is at least 90% and the mortality at 20 ppm came out at 100%. The mortality at 20 ppm in data set [3] (Haemonchus contortus) was determined as 100%.

For the compound `O=C(NCC(F)(F)c1ncc(-n2cc(F)cn2)cc1Cl)c1nccnc1C(F)(F)F` [Example 7], the chromatographic logP in data set [1] (setting [4]) was found to be 2.88.

`O=C(NCC(F)(F)c1ncc(-n2ccc(C(F)(F)F)n2)cc1Cl)c1nccnc1C(F)(F)F` [Example 8] gave a chromatographic logP in data set [1] of 3.49. In data set [2] (Cooperia curticei), the mortality at 4 ppm is at least 90% and the mortality at 20 ppm is 100%.

On to `O=C(NCC(F)(F)c1ncc(-n2cc(F)cn2)cc1Cl)c1cccnc1C(F)(F)F` [Example 9], for which the chromatographic logP in data set [1] (setting [4]) was determined as 2.7. Further, the mortality at 4 ppm in data set [2] (setting [5]) was at least 90%. The mortality at 20 ppm in data set [2] (setting [6]) amounted to 100%.

In the case of `O=C(NCC(F)(F)c1ncc(-n2cc(C(F)(F)F)cn2)cc1Cl)c1nccnc1C(F)(F)F` [Example 10], in data set [1] (setting [4]), the chromatographic logP was found to be 3.43. Also, the mortality at 4 ppm in data set [2] (setting [5]) was at least 90%. Further, the mortality at 20 ppm in data set [2] (setting [6]) and in data set [3] (setting [7]) was 100% throughout.

The compound `O=C(NCC(F)(F)c1ncc(-n2ccc(C(F)(F)F)n2)cc1Cl)c1ccccc1C(F)(F)F` [Example 11] returned a chromatographic logP in data set [1] of 3.63. In data set [2] (Cooperia curticei), the mortality at 4 ppm is at least 90% and the mortality at 20 ppm was 100%. Also, the mortality at 20 ppm in data set [3] (Haemonchus contortus) turned out to be 100%.

`O=C(NCC(F)(F)c1ncc(-n2cc(Cl)cn2)cc1Cl)c1ccccc1C(F)(F)F` [Example 12] came in with a chromatographic logP in data set [1] of 3.5. In data set [2] (Cooperia curticei), the mortality at 4 ppm is at least 90% and the mortality at 20 ppm was determined as 100%. Moreover, the mortality at 20 ppm in data set [3] (Haemonchus contortus) stood at 100%.

Regarding `O=C(NCC(F)(F)c1ncc(-n2ccc(C(F)(F)F)n2)cc1Cl)c1cccnc1C(F)(F)F` [Example 13], the chromatographic logP in data set [1] (setting [4]) stood at 3.27. For the same compound, the mortality at 4 ppm in data set [2] (setting [5]) was at least 90%. In data set [2] (setting [6]), the mortality at 20 ppm is 100%.

Consider `O=C(NCC(F)(F)c1ncc(-n2cc(C(F)(F)F)cn2)cc1Cl)c1cccnc1C(F)(F)F` [Example 14], for which the chromatographic logP in data set [1] (setting [4]) was 3.24. In addition, the mortality at 4 ppm in data set [2] (setting [5]) is at least 90%. Moreover, the mortality at 20 ppm in data set [2] (setting [6]) and in data set [3] (setting [7]) was 100% throughout.

For `O=C(NCC(F)(F)c1ncc(-c2cnn(CC(F)(F)F)c2)cc1Cl)c1ccccc1C(F)(F)F` [Example 15], the chromatographic logP in data set [1] (setting [4]) is 3.1. Besides, the mortality at 4 ppm in data set [2] (setting [5]) is at least 90%. For the same compound, in data set [2] (setting [6]), the mortality at 20 ppm amounted to 100%.

With `O=C(NCC(F)(F)c1ncc(-c2cnn(CC(F)(F)F)c2)cc1Cl)c1cccnc1C(F)(F)F` [Example 16], the chromatographic logP in data set [1] (setting [4]) was 2.66. In addition, the mortality at 20 ppm in data set [2] (setting [6]) amounted to 100%.

For the compound `O=C(NCC(F)(F)c1ncc(-c2cnn(CC(F)(F)F)c2)cc1Cl)c1nccnc1C(F)(F)F` [Example 17], the chromatographic logP in data set [1] (setting [4]) was determined as 2.85. In data set [2] (setting [6]), the mortality at 20 ppm amounted to 100%.

Consider `O=C(NCC(F)(F)c1ncc(-n2cc(Cl)cn2)cc1Cl)c1cccnc1C(F)(F)F` [Example 18], for which the chromatographic logP in data set [1] (setting [4]) amounted to 3.07. In addition, the mortality at 4 ppm in data set [2] (setting [5]) is at least 90%. For the same compound, the mortality at 20 ppm in data set [2] (setting [6]) and in data set [3] (setting [7]) was 100% throughout.
